Biological target: CDK2/Cyclin E1 (Homo sapiens (Human), UniProt P24941)
Test: CDK2/Cyclin E1 HTRF enzyme activity assay
Assay type: biochemical
Conditions: 1 mM ATP
Description: Assays are conducted in white 384-well polystyrene plates in a final reaction volume of 8 μL. […] HTRF signals are read after 1 hour at room temperature on a PHERAstar FS plate reader (BMG Labtech). Data is analyzed with IDBS XLFit and GraphPad Prism 5.0 software using a three or four parameter dose response curve to determine IC50 for each compound.

IC50, < 50 nM:
CCCS(=O)(=O)N1CC[C@H](Nc2ncc(C#N)c(-c3cnn(-c4ccc(CNC)cc4Cl)c3)n2)[C@H](F)C1 [Example 118, 4-(1-(2-Chloro-4-((methylamino)methyl)phenyl)-1H-pyrazol-4-yl)-2-(((3R,4S)-3-fluoro-1-(propylsulfonyl)piperidin-4-yl)amino)pyrimidine-5-carbonitrile]
CNCc1ccc(-n2cc(-c3nc(N[C@H]4CCN(S(=O)(=O)C(C)C)C[C@H]4F)ncc3C#N)cn2)c(Cl)c1 [Example 119, 4-(1-(2-Chloro-4-((methylamino)methyl)phenyl)-1H-pyrazol-4-yl)-2-(((3R,4S)-3-fluoro-1-(isopropylsulfonyl)piperidin-4-yl)amino)pyrimidine-5-carbonitrile]
CNCc1ccc(-n2cc(-c3nc(N[C@H]4CCN(S(=O)(=O)C5CC5)C[C@H]4F)ncc3C#N)cn2)c(Cl)c1 [Example 120, 4-(1-(2-Chloro-4-((methylamino)methyl)phenyl)-1H-pyrazol-4-yl)-2-(((3R,4S)-1-(cyclopropylsulfonyl)-3-fluoropiperidin-4-yl)amino)pyrimidine-5-carbonitrile]
CNCc1ccc(-n2cc(-c3nc(N[C@H]4CCN(S(=O)(=O)C5CCC5)C[C@H]4F)ncc3C#N)cn2)c(Cl)c1 [Example 121, 4-(1-(2-Chloro-4-((methylamino)methyl)phenyl)-1H-pyrazol-4-yl)-2-(((3R,4S)-1-(cyclobutylsulfonyl)-3-fluoropiperidin-4-yl)amino)pyrimidine-5-carbonitrile]
CNCc1ccc(-n2cc(-c3nc(N[C@H]4CCN(S(=O)(=O)CCCC#N)C[C@H]4F)ncc3C#N)cn2)c(Cl)c1 [Example 122, 4-(1-(2-Chloro-4-((methylamino)methyl)phenyl)-1H-pyrazol-4-yl)-2-(((3R,4S)-1-((3-cyanopropyl)sulfonyl)-3-fluoropiperidin-4-yl)amino)pyrimidine-5-carbonitrile]
CNCc1ccc(-n2cc(-c3nc(N[C@H]4CCN(S(=O)(=O)C5CC5)C[C@H]4F)ncc3C(F)(F)F)cn2)c(C)c1 [Example 123, N-((3R,4S)-1-(Cyclopropylsulfonyl)-3-fluoropiperidin-4-yl)-4-(1-(2-methyl-4-((methylamino)methyl)phenyl)-1H-pyrazol-4-yl)-5-(trifluoromethyl)pyrimidin-2-amine]
CNCc1ccc(-n2cc(-c3nc(NC4CCN(S(C)(=O)=O)CC4)ncc3Cl)cn2)c(Cl)c1 [Example 124, 5-Chloro-4-(1-(2-chloro-4-((methylamino)methyl)phenyl)-1H-pyrazol-4-yl)-N-(1-(methylsulfonyl)piperidin-4-yl)pyrimidin-2-amine]
CCNCc1ccc(-n2cc(-c3nc(NC4CCN(S(=O)(=O)CC)CC4)ncc3C#N)cn2)c(C)n1 [Example 125, 4-(1-(6-((Ethylamino)methyl)-2-methylpyridin-3-yl)-1H-pyrazol-4-yl)-2-((1-(ethylsulfonyl)piperidin-4-yl)amino)pyrimidine-5-carbonitrile]
CNCc1ccc(-n2cc(-c3nc(NC4CCN(S(=O)(=O)c5cn(C)cn5)CC4)ncc3C#N)cn2)c(C)n1 [Example 126, 2-((1-((1-Methyl-1H-imidazol-4-yl)sulfonyl)piperidin-4-yl)amino)-4-(1-(2-methyl-6-((methylamino)methyl)pyridin-3-yl)-1H-pyrazol-4-yl)pyrimidine-5-carbonitrile]
CCNCc1ccc(-n2cc(-c3nc(NC4CCN(S(=O)(=O)c5cn(C)cn5)CC4)ncc3C#N)cn2)c(C)n1 [Example 127, 4-(1-(6-((Ethylamino)methyl)-2-methylpyridin-3-yl)-1H-pyrazol-4-yl)-2-((1-((1-methyl-1H-imidazol-4-yl)sulfonyl)piperidin-4-yl)amino)pyrimidine-5-carbonitrile]

Reference: US11472791B2 (Incyte Corporation, priority 2019, dated 2022)
